# Results reported in article PMC7180948, “New Insights into 4-Anilinoquinazolines as Inhibitors of Cardiac Troponin I–Interacting Kinase (TNNi3K)” (Molecules, 2020).
# Legend:
# Experiment in all cases: biochemical
# Design in all cases: KINOMEscan competition binding panel (Eurofins DiscoverX), single concentration, % inhibition
# Settings in all cases: read-out: 7 at 1 µM % inhibition
# [1] = target: T1, ABL1(F317L)-phosphorylated (Homo sapiens, UniProt P00519, F317L)
# T1 construct: phosphorylated
# Outline: (§1)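 Selectivity profile from a KINOMEscan run against >400 human kinases; test concentration 1 µM.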
# ACVRL1 = ACVRL1 (Homo sapiens, UniProt P37023)
# Outline: as §1
# ASK1 = target: T2, ASK1 (Homo sapiens, UniProt Q99683)
# T2 construct: gene MAP3K5
# Outline: as §1
# CAMKK1 = CAMKK1 (Homo sapiens, UniProt Q8N5S9)
# Outline: as §1
# CDK4-cyclinD3 = target: T3, CDK4-cyclinD3 (Homo sapiens, UniProt P11802)
# T3 construct: cyclinD3
# Outline: as §1
# CDKL1 = CDKL1 (Homo sapiens, UniProt Q00532)
# Outline: as §1
# CHEK2 = CHEK2 (Homo sapiens, UniProt O96017)
# Outline: as §1
# EGFR = EGFR (Homo sapiens, UniProt P00533)
# Outline: as §1
# [2] = target: EGFR(L747-E749del, A750P) (Homo sapiens, UniProt P00533, A750P/DEL747-749)
# Outline: as §1
# EGFR(L861Q) = EGFR(L861Q) (Homo sapiens, UniProt P00533, L861Q)
# Outline: as §1
# EPHA3 = EPHA3 (Homo sapiens, UniProt P29320)
# Outline: as §1
# EPHB6 = EPHB6 (Homo sapiens, UniProt O15197)
# Outline: as §1
# FLT3(ITD,F691L) = FLT3(ITD,F691L) (Homo sapiens, UniProt P36888, F691L/ITD)
# Outline: as §1
# FRK = FRK (Homo sapiens, UniProt P42685)
# Outline: as §1
# MLK2 = target: T4, MLK2 (Homo sapiens, UniProt Q02779)
# T4 construct: gene MAP3K10
# Outline: as §1
# MST1 = target: T5, MST1 (Homo sapiens, UniProt Q13043)
# T5 construct: gene STK4
# Outline: as §1
# PIK3CA = PIK3CA (Homo sapiens, UniProt P42336)
# Outline: as §1
# PIK3CA(I800L) = PIK3CA(I800L) (Homo sapiens, UniProt P42336, I800L)
# Outline: as §1
# RAF1 = RAF1 (Homo sapiens, UniProt P04049)
# Outline: as §1
# [3] = target: T6, RSK4(Kin.Dom.1-N-terminal) (Homo sapiens, UniProt Q9UK32)
# T6 construct: gene RPS6KA6; Kin.Dom.1-N-terminal
# Outline: as §1
# STK39 = STK39 (Homo sapiens, UniProt Q9UEW8)
# Outline: as §1
# SYK = SYK (Homo sapiens, UniProt P43405)
# Outline: as §1
# TSSK3 = TSSK3 (Homo sapiens, UniProt Q96PN8)
# Outline: as §1
# [4] = target: T7, TYK2(JH1domain-catalytic) (Homo sapiens, UniProt P29597)
# T7 construct: JH1domain-catalytic
# Outline: as §1
# EGFR(L747-E749del, A750P), sequence (P00533 with tags, fused parts or gaps DEL747-749/A750P): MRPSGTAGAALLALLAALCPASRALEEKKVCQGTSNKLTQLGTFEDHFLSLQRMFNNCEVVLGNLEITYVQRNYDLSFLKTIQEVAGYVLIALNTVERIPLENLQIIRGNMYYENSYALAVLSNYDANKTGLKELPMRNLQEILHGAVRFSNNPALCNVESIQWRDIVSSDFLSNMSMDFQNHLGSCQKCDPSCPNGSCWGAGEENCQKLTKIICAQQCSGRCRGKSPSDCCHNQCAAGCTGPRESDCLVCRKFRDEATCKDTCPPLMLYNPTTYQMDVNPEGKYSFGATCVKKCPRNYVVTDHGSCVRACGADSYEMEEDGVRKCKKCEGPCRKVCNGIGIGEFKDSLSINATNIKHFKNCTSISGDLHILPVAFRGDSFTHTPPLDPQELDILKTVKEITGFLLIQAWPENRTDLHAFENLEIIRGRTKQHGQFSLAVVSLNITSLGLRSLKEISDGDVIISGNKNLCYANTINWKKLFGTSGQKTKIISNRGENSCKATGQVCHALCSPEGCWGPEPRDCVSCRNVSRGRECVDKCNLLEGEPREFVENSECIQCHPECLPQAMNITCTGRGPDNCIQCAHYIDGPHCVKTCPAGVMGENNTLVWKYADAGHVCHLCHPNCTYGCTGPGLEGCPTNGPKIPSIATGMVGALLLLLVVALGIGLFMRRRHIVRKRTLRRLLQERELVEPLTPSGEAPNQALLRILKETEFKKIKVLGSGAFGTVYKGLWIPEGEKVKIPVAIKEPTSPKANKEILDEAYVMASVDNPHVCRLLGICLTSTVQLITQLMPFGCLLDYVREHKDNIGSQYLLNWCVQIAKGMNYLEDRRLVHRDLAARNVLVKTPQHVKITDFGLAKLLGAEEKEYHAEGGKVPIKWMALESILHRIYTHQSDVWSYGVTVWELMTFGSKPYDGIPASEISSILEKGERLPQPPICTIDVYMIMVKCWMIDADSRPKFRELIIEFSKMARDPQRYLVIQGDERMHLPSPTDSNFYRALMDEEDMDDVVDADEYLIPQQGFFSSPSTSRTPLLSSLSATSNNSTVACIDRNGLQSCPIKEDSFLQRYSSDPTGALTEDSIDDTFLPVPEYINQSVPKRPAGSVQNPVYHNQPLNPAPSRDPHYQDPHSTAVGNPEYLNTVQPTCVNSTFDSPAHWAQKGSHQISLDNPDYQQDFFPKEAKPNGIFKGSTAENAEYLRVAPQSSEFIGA
# T6 sequence (Q9UK32 whole entry): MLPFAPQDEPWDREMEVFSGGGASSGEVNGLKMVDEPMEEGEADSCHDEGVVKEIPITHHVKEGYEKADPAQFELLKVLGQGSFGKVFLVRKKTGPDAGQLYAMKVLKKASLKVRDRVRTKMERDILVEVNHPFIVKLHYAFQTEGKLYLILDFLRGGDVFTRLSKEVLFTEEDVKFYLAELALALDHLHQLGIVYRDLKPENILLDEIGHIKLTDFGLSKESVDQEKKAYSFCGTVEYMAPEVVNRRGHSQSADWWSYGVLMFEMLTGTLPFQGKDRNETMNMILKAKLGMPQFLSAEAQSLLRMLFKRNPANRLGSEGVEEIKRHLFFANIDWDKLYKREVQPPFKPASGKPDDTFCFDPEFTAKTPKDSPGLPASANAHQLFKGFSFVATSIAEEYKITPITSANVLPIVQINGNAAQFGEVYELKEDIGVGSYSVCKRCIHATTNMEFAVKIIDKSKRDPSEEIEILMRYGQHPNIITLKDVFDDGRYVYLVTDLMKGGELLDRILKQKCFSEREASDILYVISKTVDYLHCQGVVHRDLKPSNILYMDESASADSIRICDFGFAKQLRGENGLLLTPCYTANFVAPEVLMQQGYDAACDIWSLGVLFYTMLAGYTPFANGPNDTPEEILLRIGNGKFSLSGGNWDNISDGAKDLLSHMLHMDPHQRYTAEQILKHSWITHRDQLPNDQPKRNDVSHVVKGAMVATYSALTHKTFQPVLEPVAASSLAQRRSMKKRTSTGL
# PIK3CA, sequence (P42336 whole entry): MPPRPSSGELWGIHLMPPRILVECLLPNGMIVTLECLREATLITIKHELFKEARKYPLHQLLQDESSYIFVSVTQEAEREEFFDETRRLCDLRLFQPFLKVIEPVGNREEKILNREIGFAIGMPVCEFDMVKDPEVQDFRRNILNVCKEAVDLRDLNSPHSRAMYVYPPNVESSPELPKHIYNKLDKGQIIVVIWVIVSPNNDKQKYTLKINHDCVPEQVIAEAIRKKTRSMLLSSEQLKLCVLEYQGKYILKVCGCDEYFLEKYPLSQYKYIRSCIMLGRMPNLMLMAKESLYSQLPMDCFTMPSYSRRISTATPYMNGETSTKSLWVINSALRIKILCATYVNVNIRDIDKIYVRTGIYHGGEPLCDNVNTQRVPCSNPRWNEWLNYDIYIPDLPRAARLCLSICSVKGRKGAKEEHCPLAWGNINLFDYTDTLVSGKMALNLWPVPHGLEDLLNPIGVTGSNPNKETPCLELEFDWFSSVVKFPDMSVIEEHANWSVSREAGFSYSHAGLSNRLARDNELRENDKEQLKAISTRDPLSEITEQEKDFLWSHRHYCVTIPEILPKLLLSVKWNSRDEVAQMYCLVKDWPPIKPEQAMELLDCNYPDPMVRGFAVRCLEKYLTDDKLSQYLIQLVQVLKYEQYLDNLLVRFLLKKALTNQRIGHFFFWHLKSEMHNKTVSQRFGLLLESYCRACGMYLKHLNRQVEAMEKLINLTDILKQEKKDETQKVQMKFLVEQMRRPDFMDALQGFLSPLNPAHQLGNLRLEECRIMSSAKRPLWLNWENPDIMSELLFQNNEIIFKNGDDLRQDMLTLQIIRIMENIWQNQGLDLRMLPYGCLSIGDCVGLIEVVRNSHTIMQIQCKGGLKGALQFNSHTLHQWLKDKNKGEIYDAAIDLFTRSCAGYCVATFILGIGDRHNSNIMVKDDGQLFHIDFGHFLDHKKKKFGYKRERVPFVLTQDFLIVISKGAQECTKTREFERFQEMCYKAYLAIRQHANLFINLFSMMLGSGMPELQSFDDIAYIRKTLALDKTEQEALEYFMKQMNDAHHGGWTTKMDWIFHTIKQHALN
# TSSK3, sequence (Q96PN8 whole entry): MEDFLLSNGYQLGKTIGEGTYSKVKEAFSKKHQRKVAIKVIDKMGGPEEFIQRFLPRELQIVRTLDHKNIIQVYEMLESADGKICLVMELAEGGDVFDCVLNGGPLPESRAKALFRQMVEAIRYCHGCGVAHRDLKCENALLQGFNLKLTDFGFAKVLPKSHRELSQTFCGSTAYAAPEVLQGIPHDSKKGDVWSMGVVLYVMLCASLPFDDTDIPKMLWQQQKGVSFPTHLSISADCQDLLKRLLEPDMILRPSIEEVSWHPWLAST
# T5 sequence (Q13043 whole entry): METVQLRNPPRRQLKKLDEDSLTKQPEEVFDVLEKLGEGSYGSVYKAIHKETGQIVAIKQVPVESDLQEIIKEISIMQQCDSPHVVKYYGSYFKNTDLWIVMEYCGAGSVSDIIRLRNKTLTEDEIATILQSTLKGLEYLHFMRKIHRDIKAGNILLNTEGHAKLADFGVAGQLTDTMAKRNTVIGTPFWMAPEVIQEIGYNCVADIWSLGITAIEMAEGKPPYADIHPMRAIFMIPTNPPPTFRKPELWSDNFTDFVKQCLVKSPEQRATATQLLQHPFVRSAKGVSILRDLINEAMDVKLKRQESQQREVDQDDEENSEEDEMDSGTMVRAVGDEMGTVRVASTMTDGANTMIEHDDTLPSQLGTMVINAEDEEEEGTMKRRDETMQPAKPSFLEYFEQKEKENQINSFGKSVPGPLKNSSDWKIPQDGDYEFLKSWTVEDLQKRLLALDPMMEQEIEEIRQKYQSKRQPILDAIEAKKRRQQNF
# RAF1, sequence (P04049 whole entry): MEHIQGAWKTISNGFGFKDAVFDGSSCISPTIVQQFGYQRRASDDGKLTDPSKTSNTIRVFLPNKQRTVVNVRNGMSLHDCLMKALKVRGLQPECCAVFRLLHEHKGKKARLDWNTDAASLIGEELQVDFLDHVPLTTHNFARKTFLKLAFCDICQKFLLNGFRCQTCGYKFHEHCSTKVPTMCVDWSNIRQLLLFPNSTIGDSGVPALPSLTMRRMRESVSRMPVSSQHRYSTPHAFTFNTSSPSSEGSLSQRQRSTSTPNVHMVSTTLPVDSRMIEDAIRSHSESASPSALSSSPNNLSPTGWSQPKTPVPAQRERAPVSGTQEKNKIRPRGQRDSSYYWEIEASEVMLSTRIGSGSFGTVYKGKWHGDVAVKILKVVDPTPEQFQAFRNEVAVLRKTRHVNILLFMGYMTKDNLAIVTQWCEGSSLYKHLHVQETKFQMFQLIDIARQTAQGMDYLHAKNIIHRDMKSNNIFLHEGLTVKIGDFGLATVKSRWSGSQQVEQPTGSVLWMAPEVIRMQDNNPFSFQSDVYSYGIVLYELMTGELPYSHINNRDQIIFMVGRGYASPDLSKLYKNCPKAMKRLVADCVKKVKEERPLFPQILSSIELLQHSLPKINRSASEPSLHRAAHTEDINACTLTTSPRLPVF
# CAMKK1, sequence (Q8N5S9 whole entry): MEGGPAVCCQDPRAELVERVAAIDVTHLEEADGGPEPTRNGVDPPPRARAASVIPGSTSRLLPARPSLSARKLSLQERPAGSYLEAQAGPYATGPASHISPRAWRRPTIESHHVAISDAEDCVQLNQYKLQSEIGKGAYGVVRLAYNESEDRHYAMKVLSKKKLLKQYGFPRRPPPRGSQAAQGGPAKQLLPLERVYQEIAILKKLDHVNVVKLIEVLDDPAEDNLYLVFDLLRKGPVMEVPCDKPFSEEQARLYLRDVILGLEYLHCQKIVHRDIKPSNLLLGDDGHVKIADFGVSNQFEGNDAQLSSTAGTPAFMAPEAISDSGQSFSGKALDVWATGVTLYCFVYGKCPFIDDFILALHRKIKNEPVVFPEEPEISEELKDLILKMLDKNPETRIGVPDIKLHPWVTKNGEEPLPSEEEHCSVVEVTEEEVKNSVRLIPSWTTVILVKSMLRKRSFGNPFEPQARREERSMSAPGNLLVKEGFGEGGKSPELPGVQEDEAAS
# PIK3CA(I800L), sequence (P42336 whole entry I800L): as the sequence (P42336 whole entry) above, with I800L counted along it
smiles,measurement,setting,value
"CNS(=O)(=O)c1ccc(N(C)C)c(Nc2ncnc3cc(OC)c(OC)cc23)c1 [compound 7, 3-((6,7-dimethoxyquinazolin-4-yl)amino)-4-(dimethylamino)-N-methylbenzenesulfonamide]",inhibition at 1 µM,[1],0%
same,inhibition at 1 µM,ACVRL1,0%
same,inhibition at 1 µM,ASK1,0%
same,inhibition at 1 µM,CAMKK1,5%
same,inhibition at 1 µM,CDK4-cyclinD3,37%
same,inhibition at 1 µM,CDKL1,0%
same,inhibition at 1 µM,CHEK2,11%
same,inhibition at 1 µM,EGFR,0%
same,inhibition at 1 µM,[2],0%
same,inhibition at 1 µM,EGFR(L861Q),0%
same,inhibition at 1 µM,EPHA3,5%
same,inhibition at 1 µM,EPHB6,15%
same,inhibition at 1 µM,"FLT3(ITD,F691L)",22%
same,inhibition at 1 µM,FRK,0%
same,inhibition at 1 µM,MLK2,15%
same,inhibition at 1 µM,MST1,21%
same,inhibition at 1 µM,PIK3CA,51%
same,inhibition at 1 µM,PIK3CA(I800L),56%
same,inhibition at 1 µM,RAF1,23%
same,inhibition at 1 µM,[3],34%
same,inhibition at 1 µM,STK39,8%
same,inhibition at 1 µM,SYK,0%
same,inhibition at 1 µM,TSSK3,0%
same,inhibition at 1 µM,[4],0%
